A short description of data set [1]: Metabolic stability and intrinsic clearance in rat hepatocytes. Particulars: cryopreserved rat hepatocytes (suspension), 1 uM compound, 37 C, read-out: rHeps CLint. In kind it is in vitro ADME. Here is the method:
Stock solutions of compounds and control compounds were prepared in 10 mM in appropriate solvent, such as DMSO. L-15 medium was placed in a 37° C. water bath and allowed to warm for at least 15 minutes prior to use. A quenching plate was prepared by adding 80 μL of acetonitrile to each well of a 96-well plate. In a new 96-well plate, the 10 mM stock solution of test compounds and control compounds were diluted to 100 μM by combining 198 μL of acetonitrile and 2 μL of the 10 mM stock. A vial of cryopreserved rat hepatocytes were removed from storage and maintained at cryogenic temperatures until thawing. The cells were thawed as quickly as possible, in a 37° C. water bath under gentle shaking. The vials were kept in the water bath until all ice crystals have dissolved and are no longer visible. After the thawing was completed, the vials were sprayed with 70% ethanol and transferred to a biosafety cabinet. […]
Cells were then counted with Cellometer® Vision. […] Counted cells were then diluted with incubation medium to a working cell density of 1.0×10^6 viable cells/mL. […]
All calculations were carried out using Microsoft Excel. Peak areas were determined from extracted ion chromatograms. in vitro half-life (t½) of parent compound was determined by regression analysis of the Ln percent parent disappearance vs. time curve.

The nature of data set [2]: Metabolic stability and intrinsic clearance in human liver microsomes. It is filed as in vitro ADME. The note with it: pooled human liver microsomes, NADPH, 1 uM compound, 37 C; read-out: hMics CLint. The procedure: Human Liver Microsomes (HLM) were obtained from BD Gentest UltraPool 150 donor (Lot no. 38289) at a concentration of 20 mg/mL protein. HLMs are stored in a −80° C. freezer. Prior to use, the pooled HLM were removed from the freezer and allowed to thaw in a 37° C. water bath and then stored on wet ice. 100 μmol/L test compound solution and positive control (PC) solutions (phenacetin, verapamil, diclofenac, imiprimine, benzydamine and metoprolol) were prepared by adding 2 μL of 10 mmol/L stock solution in DMSO to 198 μL of acetonitrile. HML mixtures were prepared by adding 1325 μL of 20 mg/mL HLM to 22260 μL of phosphate buffer to obtain the HLM mixture at 1.1236 mg/mL. Prior to testing the compounds, 222.5 μL of 1.1236 mg/mL HLM mixtures and 25 μL of the 10 mM NADPH were mixed in the incubation plates on a whirly mixer for 10 seconds. The incubation plates were pre-warmed at 37° C. for 8 min. […]
Quantitative LC-MS analysis were carried out with an API 4000 (AB sciex, USA) Ultra mass spectrometer at MRM mode (MS/MS). Peak areas were determined from extracted ion chromatograms. Percent parent remaining was calculated from peak area of test compound or PC. The slope value, k, was determined by linear regression of the natural logarithm of percent parent remaining vs. incubation time curve. […]
The in vitro half-life (in vitro t1/2) was determined from the slope value: in vitro t½=−(0.693/k). […]

On to `C[C@@H]1CC(F)(F)CN(C(=O)c2nn(C)cc2-c2ccc(Cl)cc2)[C@@H]1CNc1cnc(C(F)(F)F)cn1` [Compound 129, (4-(4-chlorophenyl)-1-methyl-1H-pyrazol-3-yl)((2S,3R)-5,5-difluoro-3-methyl-2-(((5-(trifluoromethyl)pyrazin-2-yl)amino)methyl)piperidin-1-yl)methanone], for which the hepatocyte CLint at 1 µM in data set [1] worked out at 3.8 µL/min/1e6 cells. Moreover, the microsomal CLint at 1 µM in data set [2] is less than 3 µL/min/mg.
For the compound `Cc1nc(C(=O)N2CC(F)(F)C[C@@H](C)[C@H]2CNc2ccc(C(F)(F)F)cn2)c(-c2ccc(F)cc2)s1` [Compound 185, ((2S,3R)-5,5-difluoro-3-methyl-2-(((5-(trifluoromethyl)pyridin-2-yl)amino)methyl)piperidin-1-yl)(5-(4-fluorophenyl)-2-methylthiazol-4-yl)methanone], the hepatocyte CLint at 1 µM in data set [1] came to 107 µL/min/1e6 cells. Also, in data set [2], the microsomal CLint at 1 µM is 29 µL/min/mg.

Source of the values: patent US12084437B2, “Halo-substituted piperidines as orexin receptor modulators” (AstraZeneca AB, priority 2016, dated 2024).
